Source: US20250100962A1 (CITY OF HOPE, priority 2023, published 2025)
“Also recorded” adds a separate entry of the source.

How the values were obtained:
[1] = In vivo pharmacokinetics after intravenous tail vein injection; parameters: species or system mouse; settings: 1 mg/kg intravenous
Method: FIGS. 47A-47C. In vivo PK study of CM002 by intravenous administration in C57/BL6 mice. We next performed pharmacokinetic analysis of CM002 in normal wild-type C57/BL6 mice to guide in vivo studies. Following intravenous delivery of CM002 via tail vein injection at 1 mg/kg of body weight in three mice of 12 weeks of age, we monitored its plasma concentrations at 6 hours (FIG. 47A) and 24 hours (FIG. 47B). […] Quantitative analysis of key pharmacokinetic parameters is shown in FIG. 47C, based on 1 mg/kg/day intravenous administration.

[2] = system: primary myoblasts derived from patients with Duchene Muscular Dystrophy; assay: Myogenic induction in human DMD primary myoblasts (immunoblot); assay type: cell-based; settings: 3 days of differentiation
Description: FIGS. 40A-40B. Chlorhexidine and CM002 promote myogenic induction in human DMD primary myoblasts. Using primary myoblasts derived from patients with Duchene Muscular Dystrophy, we determined the effect of Chlorhexidine and CM002 on promoting myogenic induction.

[3] = system: 3T3-L1 preadipocytes containing Per2::dLuc luciferase reporter; assay: Bioluminescence monitoring of Per2::dLuc reporter in 3T3-L1 preadipocytes; assay type: cell-based
Method: (§1) Generation of stable adipogenic progenitor cell lines containing Per2::dLuc. 3T3-L1 preadipocytes and the C3H10T1/2 mesenchymal stem cells obtained from ATCC were used for Per2:: dLuc lentiviral transduction and stable clone selection using puromycin, as described previously (Guo et al., 2012). Briefly, cells were transfected with lentiviral packaging plasmids (pSPAX.2 and pMD2.G) and lentivirus vectors Per2::dLuc using PEI Max (Polysciences). At 48 hours post-transfection, lentiviruses were collected. 3T3-L1 and C3H10T1/2 […] cells were infected using collected lentiviral media supplemented with polybrene. 24 hours following lentiviral infection, stable cell lines were selected in the presence of 2 μg/ml puromycin.
(§2) Continuous Bioluminescence monitoring of Per2:: dLuc luciferase reporter. 3T3-L1 and C3H10T1/2 cells containing a Per2::dLuc luciferase reporter were generated as described previously (Xiong et al., 2023). […] Raw and subtracted results of real-time bioluminescence recording data for 6 days were exported, and data was calculated as luminescence counts per second, as previously described (Xiong, Li, Nam et al., 2022). […] Briefly, raw data following the first cycle from day 2 to […] were fitted to a linear baseline, and the baseline-subtracted data (polynomial number=1) were fitted to a sine wave, from which period length and goodness of fit and damping constant were determined.

[4] = system: U2OS cells; assay: Clock gene and protein expression in U2OS cells (immunoblot, RT-qPCR); assay type: cell-based; settings: 24 h
Method: (§3) Total protein (20-30 μg) was extracted using standard IP Lysis buffer (3% NaCl, 5% Tris-HCl, 10% Glycerol, 0.5% Triton X-10 in Sterile MilliQ water) and resolved on 10% SDS-Page gels followed by western blotting on Immun-Blot PVDF Membranes for Protein Blotting (Bio-rad). Antibodies used were diluted in 5% milk (Labscientific CN: M0841). Membranes were washed with TBS-T [10% TBS, 0.1% Tween™ 20 (Fisher BioReagents CN: BP377-500)]. Images were developed using Luminol solution 1:1 SuperSignal West Pico PLUS Stable Peroxide Solution (Thermo Scientific CN: 1863095) and SuperSignal West Pico PLUS Luminol Enhancer Solution (Thermo Scientific CN: 1863094) on chemiluminescence imager (GE Healthcare Bio-Sciences AB Amersham Imager 680).
(§4) Cells extracted with TRIzol™ Reagent (Ambion CN: 15596018) were collected. RNA extraction was performed with Chloroform (Fisher Chemical CN: C298-500) and Isopropanol (Fisher Chemical CN: A451SK-4) extraction followed by two purification steps with 75% Ethanol (Fisherbrand CN: HC-800-1GAL) and elution in Sterile MilliQ water.
(§5) The RNA concentration was measured using Nanodrop spectrophotometer (Thermo Fisher). Following RNA extraction, retro transcription was performed using RevertAid RT Reverse Transcription Kit (Thermo Fisher CN: K1691) and run on SimpliAmp Thermal Cycler (Thermo Fisher CN: A24811) according to the kit procedure. Quantitative PCR was performed using PowerUp™ SYBR™ Green Master Mix (Thermo Fisher CN: A25742) using a dilution of 5:2:1 master mix, RNA and H2Omq according to the protocol on ViiA 7 Real-Time PCR System (Applied Biosystems). Relative expression levels were determined using the comparative Ct method to normalize target genes to 36B4 internal controls.

[5] = system: C2C12 myoblasts; assay: Clock and Wnt pathway gene/protein expression in C2C12 myoblasts during myogenic differentiation; assay type: cell-based, mouse
Method: as §3, §4, §5
Pictures were taken every day to monitor morphological progression, and proteins and RNA samples were collected on days indicated.

[6] = system: C3H10T1/2 cells containing Per2::dLuc luciferase reporter; assay: Bioluminescence monitoring of Per2::dLuc reporter in C3H10T1/2 cells; assay type: cell-based; settings: 10T1/2 cells
Method: as §1, §2

| Structure (SMILES) | plasma level at half-life [1] [ng/mL] | time of tissue re-distribution [1] [min] | time to being largely cleared [1] [h] | maximal plasma concentration ([1]; C57/BL6 mice) [mg/L] | half-life ([1]; mouse, plasma, C57/BL6 mice) [h] | MyoD and Myogenin protein (myogenic factors) [2] | Bmal1 protein expression ([2]; 0.2 and 0.5 μM) | clock cycling amplitude [3] | clock period length [3] | CLOCK and Bmal1 transcripts ([4]; RT-qPCR) | Dbp, Nr1d1, Nr1d2 and Cry2 transcripts ([4]; RT-qPCR) | Bmal1 protein expression ([4]; immunoblot) | CLOCK protein levels ([4]; immunoblot) | Rev-erbα (Nr1d1) and Period 2 (Per 2) protein ([4]; immunoblot) | CLOCK and Bmal1 protein levels with targets Rev-erbα and Cry2 ([5]; 0.5 uM, through 6 days of differentiation) | induction of Wnt10a, Fzd5 and β-catenin in Bmal1-deficient myoblasts ([5]; BMKD myoblasts) | induction of Clock, Bmal1, Rev-erbα and Per2 in Bmal1 shRNA (BMKD) cells ([5]; day 4 of myogenic differentiation, vs scrambled control) | Wnt10a, Fzd5 and β-catenin expression ([5]; scrambled control (SC) myoblasts, RT-qPCR) | clock period length [6] | clock cycling amplitude ([6]; 1 and 2 μM) |
| --- | --- | --- | --- | --- | --- | --- | --- | --- | --- | --- | --- | --- | --- | --- | --- | --- | --- | --- | --- | --- |
| CCCCCC/C=N/C(=N)NC(=N)Nc1ccc(Cl)cc1 [CM002] | ~100 | ≤ 30 | ≤ 24 | ~1.47 | 6.76 ± 1.33 | Robust inductions of MyoD and Myogenin protein | significantly elevated protein expression of Bmal1 |  |  |  |  |  |  |  |  |  |  |  |  |  |
| [H]/N=C(\N/C(=N/[H])NCCCCCCNC(=N)NC(=N)Nc1ccc(Cl)cc1)Nc1ccc(Cl)cc1 [CHX, chlorhexidine] |  |  |  |  |  |  |  | increasing amplitude | reducing period length | markedly up-regulated | stimulated | elevated Bmal1 expression at 0.2 and 0.5 μM | sufficient to induce CLOCK protein levels | induced by CHX in a largely dose-dependent manner | robustly stimulated | completely abolished in Bmal1-deficient myoblasts; also recorded: abolished in Bmal1-deficient cells | completely abolished in the BMKD cells | significantly induced by CHX at 0.5 μM with tendency toward induction at 0.2 μM | dose-dependent clock period shortening, with this effect significant only for 1 and 2 μM | augment clock cycling amplitude |
